US7057059B2, “Tumor-inhibiting platinum (II) oxalate complexes” (Faustus Forschungs CIE. Translational Cancer Research GmbH, priority 2002, dated 2006)

Experiments:
[1] = tested on: Female, tumor-bearing B6D2F1 mouse; experiment: In vivo efficacy study: survivors on day 14 after tumor transplantation; conditions: for Survivors/total number: Qd×5, day 14 after tumor transplantation; for animals still alive on day 14: highest dosage level
From the text: Female, tumor-bearing B6D2F1 mouse, day 14 after tumor transplantation.

animals free of tumors = experiment: MTD study on animals free of tumors; conditions: on day 5, at MTD 10 mg/kg Qd×5
[2] = MTD study on animals free of tumors; conditions: in vivo
leukaemia L1210 = experiment: L1210 leukaemia in the mouse; format: in vivo; conditions: for effectiveness (survival to the end of the experiment): 3 mg/kg and 6 mg/kg, 21 day study
From the text: FIG. 4 is a bar graph of the results of the effectiveness of (4-methyl-trans-chxn)Pt(ox) in comparison to I-OHP in leukaemia L1210 in the mouse at various dosages over a 21 day study.

[3] = tested on: SW480 (adenocarcinoma of the colon; primary resistance to cisplatinum); format: cell-based; conditions: cell line SW480, MTT, 96 h
Experimental: (§1) The cytotoxicity of the compounds according to Examples 1 and 2 was tested by using the following cell lines 41M, CH1 and SW480. In this respect the following method was selected:
(§2) In this regard, adherent monolayer cultures of the following cell lines were used: 41M (adenocarcinoma of the ovary), CH1 (adenocarcinoma of the ovary), SW480 (adenocarcinoma of the colon; primary resistance to cisplatinum).
(§3) Culture conditions: The cells were kept in 75 cm^2 culture flasks at 37° C. and moist atmosphere (5% CO2). Minimal Essential Medium (MEM) was used as culture medium, with 2 mmol/l I-glutamine, 1 mmol/l sodium pyruvate, 50 IU/ml penicillin, 50 μg/ml streptomycin and 10% heat-inactivated foetal bovine serum.
(§4) Test execution: Cell suspensions were obtained from subconfluent cultures by treatment with trypsin and seeded in defined density in 96-well microculture plates. The initial density was selected such that for the complete test duration an exponential growth of the cultures was guaranteed. For the cell line 41M this was 4·10^4 cells/ml, for CH1 1.25·10^4 cells/ml and for SW480 1.5·10^4 cells/ml. The plates were incubated for 24 h under standard conditions to achieve cell establishment. Then the compounds to be tested were introduced in ten-staged concentration series in the culture medium (without addition of organic solvents or dissolving agents) into the plates and left for the complete test duration (96 h). Per experiment each concentration was tested on eight microcultures of the same cell line. At the end of the experiment the respective number of living cells in the microculture was determined spectrophotometrically (at 550 nm) using the MTT-dye reaction in relationship to the untreated control cultures. Equally, the number of living cells in microculture plates started in parallel was quantified at the start of the active substance exposition. […] The mean values were used for the evaluation.

[4] = tested on: 41M (adenocarcinoma of the ovary); format: cell-based; conditions: cell line 41M, MTT, 96 h
Experimental: as §1, §2, §3, §4

[5] = tested on: CH1 (adenocarcinoma of the ovary); format: cell-based; conditions: cell line CH1, MTT, 96 h
Experimental: as §1, §2, §3, §4

Molecule	animals still alive on day 14 [1]	weight loss (animals free of tumors) [%]	MTD at 5 days [2] [mg/kg]	effectiveness (survival to the end of the experiment) (leukaemia L1210)	Gl50 [3] [µM]	IC50 [3] [nM]	TGI [3] [nM]	GL50 [4] [µM]	IC50 [4] [nM]	TGI [4] [nM]	Gl50 [5] [µM]	IC50 [5] [nM]	TGI [5] [nM]	also measured
CCC1CCC2[NH][Pt]3([NH]C2C1)[O]C(=O)C(=O)[O]3 (stereo not drawn) [[(4-ethyl-trans-chxn)Pt(ox)], (SP-4-3)-(4-ethyl-trans-cyclohexane-1,2-diamine)oxalatoplatinum (II)]	6/6	5	10	–	–	–	–	–	–	–	–	–	–	Survivors/total number ([1]; dose 1.34 mg/kg): 5/6; Survivors/total number ([1]; dose 2.68 mg/kg): 6/6; Survivors/total number ([1]; dose 5.35 mg/kg): 6/6
(SP-4-3)-(4-methyl-trans-cyclohexane-1,2-diamine)oxalatoplatinum (II) [[(4-methyl-trans-chxn)Pt(ox)]]	4/6	5	–	all animals survived the experiment to the end	0.31	650	9000	0.91 ± 0.16	2400	4200 ± 2600	0.22	340	930	Survivors/total number ([1]; dose 1.30 mg/kg): 6/6; Survivors/total number ([1]; dose 2.60 mg/kg): 5/6; Survivors/total number ([1]; dose 5.20 mg/kg): 4/6; tolerance at high dosage (leukaemia L1210; 24 mg/kg, in comparison to I-OHP): better tolerance
O=C1[O][Pt]2([NH]C3CCCC[C@H]3[NH]2)[O]C1=O (stereo partly shown) [Oxaliplatinum, oxaliplatinum]	death of all animals	–	5	deaths already occurred	–	–	–	–	–	–	–	–	–	Survivors/total number ([1]; dose 1.25 mg/kg): 5/6; Survivors/total number ([1]; dose 2.50 mg/kg): 6/6; Survivors/total number ([1]; dose 5.00 mg/kg): 0/6
O=C(O)C(=O)O.[NH-][C@@H]1CCCC[C@H]1[NH-].[Pt+2] [[(trans-chxn)Pt(ox)]]	–	–	–	–	0.8	1600	21800	0.99	4200	5000	0.54	700	2000	–
O=C(O)C(=O)O.[NH-]C1CCCCC1[NH-].[Pt+2] (stereo not drawn) [[(trans-S,S-chxn)Pt(ox)]]	–	–	–	–	2.2	4200	47800	1.11	3200	4400	1.14	1500	4200	–
